The text below walks through data of patent US7589123B2, “Chemical compounds” (Phytopharm PLC, priority 2006, dated 2009).

The target in one series is T1, 5-lipoxygenase (Homo sapiens, UniProt P09917).
T1 construct: endogenous in cells; host or cells: human peripheral blood mononuclear leukocytes (PBMLs)
T1 sequence (P09917 1-674): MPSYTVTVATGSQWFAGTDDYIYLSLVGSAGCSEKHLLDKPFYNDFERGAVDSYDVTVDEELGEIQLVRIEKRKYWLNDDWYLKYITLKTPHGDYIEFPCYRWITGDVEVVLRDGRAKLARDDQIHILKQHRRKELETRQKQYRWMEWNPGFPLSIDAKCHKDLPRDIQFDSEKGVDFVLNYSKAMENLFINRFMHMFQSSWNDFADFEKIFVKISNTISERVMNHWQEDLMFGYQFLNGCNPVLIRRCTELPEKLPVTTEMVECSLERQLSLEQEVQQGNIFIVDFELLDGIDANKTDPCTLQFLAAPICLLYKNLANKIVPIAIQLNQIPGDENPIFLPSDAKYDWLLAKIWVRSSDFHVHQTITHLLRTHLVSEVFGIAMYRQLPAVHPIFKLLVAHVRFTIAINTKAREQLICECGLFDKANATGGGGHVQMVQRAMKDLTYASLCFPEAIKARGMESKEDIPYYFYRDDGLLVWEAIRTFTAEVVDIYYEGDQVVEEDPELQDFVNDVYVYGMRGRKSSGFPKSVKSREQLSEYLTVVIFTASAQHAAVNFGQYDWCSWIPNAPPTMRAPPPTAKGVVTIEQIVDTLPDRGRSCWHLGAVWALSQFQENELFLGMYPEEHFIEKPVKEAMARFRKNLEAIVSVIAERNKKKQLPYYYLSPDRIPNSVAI
Kind of series: 5-lipoxygenase activity (LTB4) in human peripheral blood mononuclear leukocytes (Assay 6). The class given is cell-based. As to conditions: human PBMLs, A23187 30 μM, read-out: Inhibition of 5-LO (%). How it is done:
Human peripheral blood mononuclear leukocytes (PBMLs) were isolated using a Ficoll-Paque density gradient. Human peripheral blood mononuclear leukocytes (5×10^6 cells) were incubated with A23187 (30 μM), a divalent cation ionophore used to initiate the biosynthesis of […], and with vehicle (0.1% DMSO) or test compound (3 and 30 μM) in Hank's balanced salt solution (HBBS) buffer, pH 7.4 at 37° C. for 15 min. The PBML solution was neutralized with NaOH (1 N) and centrifuged at 1000 g for 10 min and the supernatant collected. The concentration of leukotriene B4 (LTB4) in the supernatant was measured using an enzyme immunoassay kit (Assay Design Inc.). A reduction in the concentration of LTB4 indicated an inhibition of the enzyme 5-lipoxygenase (Table 11).

In series [1] the test system is α-smooth muscle actin (α-SMA) mRNA. As to the kind of experiment: Anti-remodelling activity in human lung fibroblasts (HFL1): TGFβ-induced α-SMA mRNA (Assay 4). Conditions: Homo sapiens, HFL1 cells, TGFβ 10 ng/ml, 24 h, read-out: Inhibition of α-SMA mRNA synthesis (%). The class given is cell-based. How it is done: A human foetal lung fibroblast cell line (HFL1 cells; ATCC accession number CCl-153) was used in this assay. The cells were cultured in medium containing a low level of foetal bovine serum (FBS; 0.1%) for 24 h. After 24 h of culturing the medium was changed to: (a) Control medium (medium containing 10% FBS, 1% phosphate saline and 0.5 mM L-glutamine), (b) Control medium and transforming growth factor beta (TGFβ; 10 ng/ml), (c) Control medium and TGFβ and test compounds (3 and 30 μM). The medium was collected after 24 h and the total mRNA extracted in Tri-reagent. The level of mRNA coding for α-smooth muscle actin (α-SMA) was assessed by real-time reverse transcription-polymerase chain reaction (rtRT-PCR) using primer couples that allow the amplification of α-SMA mRNA. Liver glyceraldehydes 3-phosphate dehydrogenase (GADPH) was used as a reference marker in this experiment. The inhibition of the TGTβ-induced overexpression of α-SMA mRNA by the test compounds was quantified.

For series [2], the system named is histamine-induced contractions in guinea pig ileum. As to the kind of experiment: Inhibition of histamine-induced contractions in guinea pig ileum (Assay 3). Conditions: Cavia porcellus, histamine 1.7 μM, read-out: Inhibition of histamine-induced contraction (%). Here is the method:
(§1) Duncan Hartley derived male guinea pigs (325±25 g) were suppressed by CO2 overexposure, the abdominal cavity was exposed and ileal segments were removed. Small strips of ileum were suspended in organ baths containing Krebs solution (composition in g/l: NaCl 6.89, KCl 0.35, CaCl2 0.277, KH2PO4 0.163, MgSO4.7H2O 0.296, NaHCO3 2.1 glucose 1.8). The solution was kept at 32° C. and gassed with O2 (95%)-CO2 (5%) to maintain pH at 7.4. Mechanical activity was recorded by means of isotonic transducers. A resting tension of 1 g was applied to muscle strips before being equilibrated for 1 h, prior to test compound addition. Each preparation was washed twice at 15 min intervals during the equilibration.
(§2) Histamine (1.7 μM; approximately EC60-70) or 5-hydroxytryptamine (5-HT, 2.6 μM; approximately EC60-70) was applied for 5 min and the amplitude of the contraction recorded. The histamine or 5-HT was then washed out until the ileal tissue returned to baseline. Five min after returning to baseline test compound (3 and 30 μM) was applied and the amplitude of the contraction (if any) was recorded. In the continuous presence of test compound, histamine or 5-HT was re-applied and the inhibition of the response was recorded.

For a further series, the target named is TRPV1 receptor (Rattus norvegicus, UniProt O35433). As to the kind of experiment: TRPV1 modulation in DRG neurones: CGRP release in absence and presence of capsaicin (Assay 2). The class given is cell-based. Set-up: The culture used for this experiment contained sensory neurones, Schwann cells and fibroblasts; endogenous in cells; host or cells: primary rat DRG sensory neurone culture (with Schwann cells and fibroblasts). As to conditions: 20 min; for inhibition at 3 µM: 3 μM with capsaicin 1 μM; for inhibition at 3 µM / inhibition at 30 µM: −ve: inhibition, +ve: potentiation of capsaicin response, read-out: Effect of test compounds on capsaicin (1 μM)-induced CGRP release (%); for inhibition at 30 µM: 30 μM with capsaicin 1 μM; for Emax at 3 µM: test compound alone 3 μM; for Emax at 3 µM / Emax at 30 µM: rat DRG sensory neurones, read-out: CGRP release (% of capsaicin (1 μM) response); for Emax at 30 µM: test compound alone 30 μM.
Chain of TRPV1 receptor (O35433 whole entry): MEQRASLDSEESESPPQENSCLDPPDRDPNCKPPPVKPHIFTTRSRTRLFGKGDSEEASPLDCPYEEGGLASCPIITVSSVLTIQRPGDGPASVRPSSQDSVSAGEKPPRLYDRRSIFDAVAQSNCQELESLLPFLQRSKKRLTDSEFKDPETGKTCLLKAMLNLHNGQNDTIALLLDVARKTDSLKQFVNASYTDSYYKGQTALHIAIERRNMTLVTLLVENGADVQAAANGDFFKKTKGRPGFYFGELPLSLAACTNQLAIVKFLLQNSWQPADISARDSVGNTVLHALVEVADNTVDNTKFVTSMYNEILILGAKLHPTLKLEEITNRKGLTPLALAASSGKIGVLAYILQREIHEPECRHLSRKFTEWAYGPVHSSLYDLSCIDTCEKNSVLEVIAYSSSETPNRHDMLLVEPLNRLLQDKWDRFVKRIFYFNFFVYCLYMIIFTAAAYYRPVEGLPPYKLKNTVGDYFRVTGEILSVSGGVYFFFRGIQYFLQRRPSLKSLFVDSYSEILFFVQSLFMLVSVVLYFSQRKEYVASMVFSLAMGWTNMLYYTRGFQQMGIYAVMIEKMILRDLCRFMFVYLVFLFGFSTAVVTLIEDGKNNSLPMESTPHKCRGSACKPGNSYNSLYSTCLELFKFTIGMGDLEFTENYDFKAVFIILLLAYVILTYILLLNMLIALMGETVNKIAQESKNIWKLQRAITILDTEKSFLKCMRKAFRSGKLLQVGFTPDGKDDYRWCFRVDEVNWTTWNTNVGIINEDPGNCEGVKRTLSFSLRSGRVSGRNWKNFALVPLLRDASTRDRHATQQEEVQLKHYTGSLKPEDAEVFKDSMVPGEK

The subject of series [3] is 5-HT-induced contractions in guinea pig ileum. As to the kind of experiment: Inhibition of 5-HT-induced contractions in guinea pig ileum (Assay 3). As to conditions: Cavia porcellus, 5-HT 2.6 μM, read-out: Inhibition of 5-HT-induced contraction (%). How it is done:
as §1, §2

For series [4], the system named is IL-1α-induced PGE2 release. As to the kind of experiment: IL-1α-induced PGE2 release in human diploid lung fibroblasts (WI-38) (Assay 5). The class given is cell-based. Conditions: Homo sapiens, WI-38 cells, IL-1α 1 nM, overnight. How it is done: (§3) Human diploid lung fibroblasts (WI-38 cells) were incubated overnight in the presence of IL-1α (1 nM) and test compound (3 and 30 μM) in modified Eagle medium at pH 7.3 containing foetal bovine serum (10%) at 37° C. The supernatant was assayed by radioimmunoassay for released PGE2 and the inhibition of PGE2 by test compound calculated (Table 10). The viability of the cells was then assessed by washing with Roswell Park Memorial Institute medium and adding Alamar Blue reagent before being incubated at 37° C. for 4 h. Living cells take up Alamar Blue and emit fluorescence when excited. Fluorescence intensity was measured using a SpectroFluor Plus plate reader with excitation at 530 nm and emission at 590 nm (Table 10).

In another series the test system is WI-38 cells. Kind of series: Viability of WI-38 cells, Alamar Blue (Assay 5). The class given is cell-based, human. Here is the method: as §3
(The colour change of resazurin is a common sign of viable cells or microbes.)

`COc1cc(CCC(=O)CC(=O)c2ccccc2-c2ccccc2)ccc1O` [Compound 19, 1-(Biphenyl-2-yl)-5-(4-hydroxy-3-methoxyphenyl)-pentane-1,3-dione]: the inhibition at 3 µM at 5-lipoxygenase is 48%; in series [1], 57%; in series [2] it was 8%; on TRPV1 receptor, -29%; in series [3], 13%; in series [4], 73%. Also, the inhibition at 30 µM on 5-lipoxygenase was 99%; in series [1], 97%; in series [2], 81%; on TRPV1 receptor, -159%; in series [3], 39%; in series [4] it was 100%. On TRPV1 receptor, the Emax at 3 µM stood at 139%. The Emax at 30 µM on TRPV1 receptor was 286%. Further, the “Decrease in cell viability (%)” value is −1% in the series with WI-38 cells (3 μM) and 57% with WI-38 cells (30 μM).

As to `COc1cc(CCC(=O)CC(=O)c2ccc(F)cc2)ccc1O` [Compound 20, 1-(4-Fluorophenyl)-5-(4-hydroxy-3-methoxyphenyl)-pentane-1,3-dione], the inhibition at 3 µM at 5-lipoxygenase is 58%; in series [1], -8%; in series [2], 0%; at TRPV1 receptor it was 29%; in series [3], 2%; in series [4], 87%. Besides, the inhibition at 30 µM at 5-lipoxygenase is 98%; in series [1], 11%; in series [2], 22%; at TRPV1 receptor it was 4%; in series [3], 74%; in series [4] it was 99%. Besides, at TRPV1 receptor, the Emax at 3 µM was 46%. On TRPV1 receptor, the Emax at 30 µM was 96%. Moreover, the “Decrease in cell viability (%)” value was 3% in the series on WI-38 cells (3 μM) and 10% in the series on WI-38 cells (30 μM).

`COc1cc(CCC(=O)CC(=O)c2ccc(Cl)cc2)ccc1O` [Compound 21, 1-(4-Chlorophenyl)-5-(4-hydroxy-3-methoxyphenyl)pentane-1,3-dione]: the inhibition at 3 µM at 5-lipoxygenase turned out to be 68%; in series [1], 6%; in series [2], 9%; on TRPV1 receptor, 6%; in series [3], 9%; in series [4], 88%. Moreover, the inhibition at 30 µM at 5-lipoxygenase was 98%; in series [1], 54%; in series [2], 68%; at TRPV1 receptor it was -56%; in series [3] it was 49%; in series [4] it was 99%. For the same compound, the Emax at 3 µM at TRPV1 receptor turned out to be 50%. The Emax at 30 µM on TRPV1 receptor is 150%. Moreover, the “Decrease in cell viability (%)” value in the series with WI-38 cells (3 μM) is recorded as 3%; in the series on WI-38 cells (30 μM) it was 11%.

Take `COc1cc(CCC(=O)CC(=O)c2cccc(Cl)c2)ccc1O` [Compound 22, 1-(3-Chlorophenyl)-5-(4-hydroxy-3-methoxyphenyl)pentane-1,3-dione]: the inhibition at 3 µM on 5-lipoxygenase is 62%; in series [1] it was -5%; in series [2], 11%; at TRPV1 receptor, 2%; in series [3], 18%; in series [4] it was 93%. Moreover, the inhibition at 30 µM at 5-lipoxygenase is 98%; in series [1], 25%; in series [2], 65%; at TRPV1 receptor it was -58%; in series [3], 94%; in series [4], 100%. Besides, the Emax at 3 µM at TRPV1 receptor is 60%. Moreover, the Emax at 30 µM on TRPV1 receptor came to 163%. For the same compound, the “Decrease in cell viability (%)” value in the series on WI-38 cells (3 μM) was determined as 3%; with WI-38 cells (30 μM), 9%.

`COC(=O)c1ccc(C(=O)CC(=O)CCc2ccc(O)c(OC)c2)cc1` [Compound 25, Methyl 4-(5-(4-hydroxy-3-methoxyphenyl)-3-oxopentanoyl)benzoate]: the inhibition at 3 µM at 5-lipoxygenase is 54%; in series [1], -3%; in series [2] it was 1%; on TRPV1 receptor it was 18%; in series [3], 12%; in series [4] it was 58%. The inhibition at 30 µM on 5-lipoxygenase stood at 94%; in series [1], 20%; in series [2], 43%; on TRPV1 receptor it was 21%; in series [3], 35%; in series [4], 102%. On TRPV1 receptor, the Emax at 3 µM was 48%. Besides, the Emax at 30 µM at TRPV1 receptor came to 59%. The “Decrease in cell viability (%)” value is −6% with WI-38 cells (3 μM) and 0% with WI-38 cells (30 μM).
